From patent publication US20240199542A1, “SUBSTITUTED PYRROLIDIN-2-ONES, SALTS THEREOF AND THEIR USE AS HERBICIDALLY ACTIVE SUBSTANCES” (Bayer Aktiengesellschaft, priority 2021, published 2024)

Columns and labels:
Type in all cases: in vivo
[1] = system: Echinochloa crus-galli (ECHCG); test: Herbicidal pre-emergence action; settings: 1280 g/ha, graded after ca. 3 weeks
How it was run: (§1)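 Visual % damage versus untreated controls (100% = plants dead, 0% = like controls), scored ca. 3 weeks after treatment. Compounds (WP or EC) were sprayed onto the soil covering seeds sown in sandy loam, in water at 600 l/ha plus 0.5% additive, at 1280 g/ha or lower.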

[2] = system: Polygonum convolvulus (POLCO); test: Herbicidal pre-emergence action; settings: graded after ca. 3 weeks
How it was run: as §1

[3] = system: Alopecurus myosuroides (ALOMY); test: Herbicidal pre-emergence action; settings: graded after ca. 3 weeks
How it was run: as §1

Avena fatua (AVEFA) [4] = test: Herbicidal pre-emergence action; settings: graded after ca. 3 weeks
How it was run: as §1

[5] = system: Lolium multiflorum (LOLMU); test: Herbicidal pre-emergence action; settings: 1280 g/ha, graded after ca. 3 weeks
How it was run: as §1

[6] = system: Cyperus esculentus (CYPES); test: Herbicidal pre-emergence action; settings: 1280 g/ha, graded after ca. 3 weeks
How it was run: as §1

Setaria viridis (SETVI) [7] = test: Herbicidal post-emergence action; settings: 1280 g/ha, assessed after ca. 3 weeks
How it was run: (§2)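 Plants sprayed at single-leaf stage, 2–3 wk post-sowing; aq. suspension/emulsion of WP or EC, 0.5% additive, 600 l/ha; doses 1280 or 320 g/ha. Greenhouse ~3 wk, then visual % effect vs untreated (100% = dead).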

[8] = system: Echinochloa crus-galli (ECHCG); test: Herbicidal post-emergence action; settings: 1280 g/ha, assessed after ca. 3 weeks
How it was run: as §2

[9] = system: Alopecurus myosuroides (ALOMY); test: Herbicidal post-emergence action; settings: 1280 g/ha, assessed after ca. 3 weeks
How it was run: as §2

Avena fatua (AVEFA) [10] = test: Herbicidal post-emergence action; settings: 1280 g/ha, assessed after ca. 3 weeks
How it was run: as §2

[11] = system: Lolium multiflorum (LOLMU); test: Herbicidal post-emergence action; settings: 1280 g/ha, assessed after ca. 3 weeks
How it was run: as §2

[12] = system: Cyperus esculentus (CYPES); test: Herbicidal post-emergence action; settings: 1280 g/ha, assessed after ca. 3 weeks
How it was run: as §2

Veronica persica (VERPE) = test: Herbicidal pre-emergence action; settings: 1280 g/ha, graded after ca. 3 weeks
How it was run: as §1

[13] = system: Amaranthus retroflexus (AMARE); test: Herbicidal post-emergence action; settings: 1280 g/ha, assessed after ca. 3 weeks
How it was run: as §2

[14] = system: Polygonum convolvulus (POLCO); test: Herbicidal post-emergence action; settings: 1280 g/ha, assessed after ca. 3 weeks
How it was run: as §2

[15] = system: Pharbitis purpurea (PHBPU); test: Herbicidal pre-emergence action; settings: 1280 g/ha, graded after ca. 3 weeks
How it was run: as §1

Stellaria media (STEME) = test: Herbicidal post-emergence action; settings: 1280 g/ha, assessed after ca. 3 weeks
How it was run: as §2

Setaria viridis (SETVI) [16] = test: Herbicidal pre-emergence action; settings: graded after ca. 3 weeks
How it was run: as §1

Lolium rigidum (LOLRI) [17] = test: Herbicidal pre-emergence action; settings: 320 g/ha, graded after ca. 3 weeks
How it was run: as §1

[18] = system: Digitaria sanguinalis (DIGSA); test: Herbicidal pre-emergence action; settings: 320 g/ha, graded after ca. 3 weeks
How it was run: as §1

Brassica napus (BRSNW) = test: Post-emergence effects on crop plants; settings: application rate 320 g/ha, crop plant Brassica napus (BRSNW)
Text: Seeds of mono- and dicotyledonous weed plants and crop plants were sown, in plastic or organic planting pots, in sandy loam, covered with soil and grown in a greenhouse under controlled growth conditions. 2 to 3 weeks after sowing, the test plants were sprayed in the single-leaf stage. The compounds according to the invention, formulated in form of wettable powders (WP) or as emulsifiable concentrates (EC), were sprayed onto the green plant parts as aqueous suspension or emulsion, with the addition of 0.5% of an additive, at an application rate of 600 1 of water/ha (converted). The test plants were placed in the greenhouse for ca. 3 weeks under optimum growth conditions, and then the effect of the preparations was assessed visually in comparison with untreated controls (herbicidal effect in percent (%): 100% effect=plants have died off, 0% effect=as control plants).
Tables D1 to D3 below show the effects of selected compounds of the general formula (I) according to table 1 on various crop plants and an application rate corresponding to 320 g/ha or below obtained by the experimental procedure mentioned above in biology section B.

Lolium rigidum (LOLRI) [19] = test: Herbicidal post-emergence action; settings: 320 g/ha, assessed after ca. 3 weeks
How it was run: as §2

[20] = system: Digitaria sanguinalis (DIGSA); test: Herbicidal post-emergence action; settings: 320 g/ha, assessed after ca. 3 weeks
How it was run: as §2

SMILES	Pre-emergence activity against ECHCG [1]	Pre-emergence activity against POLCO ([2]; 1280 g/ha)	Pre-emergence activity against ALOMY ([3]; 1280 g/ha)	Pre-emergence activity against AVEFA (Avena fatua (AVEFA) [4]; 1280 g/ha)	Pre-emergence activity against LOLMU [5]	Pre-emergence activity against CYPES [6]	Post-emergence activity against SETVI (Setaria viridis (SETVI) [7])	Post-emergence activity against ECHCG [8]	Post-emergence activity against ALOMY [9]	Post-emergence activity against AVEFA (Avena fatua (AVEFA) [10])	Post-emergence activity against LOLMU [11]	Post-emergence activity against CYPES [12]	other results
COCC(=O)CC(=O)CNC(=O)CC1CCC(=O)N1Cc1cccc(F)c1F (racemic) [Example I-006]	90%	90%	90%	100%	90%	90%	80%	100%	90%	100%	80%	80%	
CC(C)CNC(=O)CC1CCC(=O)N1Cc1cccc(F)c1F (racemic) [Example I-056]			80%									80%	Pre-emergence activity against VERPE (Veronica persica (VERPE)): 100%
O=C(CC1CCC(=O)N1Cc1cccc(F)c1F)NC1CCCc2ccccc21 (mixture of isomers) [Example I-066]													Post-emergence activity against AMARE [13]: 100%
CC[C@H](C)[C@H](NC(=O)CC1CCC(=O)N1Cc1cccc(F)c1F)C(=O)O (single isomer, unassigned) [Example I-005]	80%	80%	90%	100%	80%		90%	100%	90%	90%	90%	90%	Post-emergence activity against POLCO [14]: 80%
O=C(CC1CCC(=O)N1Cc1cccc(F)c1F)NCC(F)(F)F (racemic) [Example I-090]													Pre-emergence activity against PHBPU [15]: 100%
CC1(C)CCC(=O)C(C(=O)CC2CCC(=O)N2Cc2cccc(F)c2F)C1=O (racemic) [Example I-178]	90%	90%	90%	90%				90%		80%			Pre-emergence activity against PHBPU [15]: 90%; Post-emergence activity against STEME (Stellaria media (STEME)): 80%; Post-emergence activity against AMARE [13]: 100%
CS(=O)(=O)NC(=O)CC1CCC(=O)N1Cc1cccc(F)c1F (racemic) [Example I-012]	80%		90%	90%	90%	80%	90%	90%	80%	90%	90%	80%	Pre-emergence activity against SETVI (Setaria viridis (SETVI) [16]; 1280 g/ha): 90%
C=CCOC(=O)CC1CCC(=O)N1Cc1cccc(F)c1F (racemic) [Example I-021]	80%	80%	90%	100%	90%		90%	90%	80%	80%	90%	80%	Pre-emergence activity against SETVI (Setaria viridis (SETVI) [16]; 1280 g/ha): 80%; Post-emergence activity against POLCO [14]: 80%
O=C(O)CC1CCC(=O)N1Cc1cccc(Cl)c1F (racemic) [Example I-001, 2-[1-[(3-chloro-2-fluorophenyl)methyl]-5-oxo-pyrrolidin-2-yl]acetic acid]	80%		90%	100%	90%	80%	80%	90%	90%	90%	100%		Pre-emergence activity against LOLRI (Lolium rigidum (LOLRI) [17]): 90%; Pre-emergence activity against VERPE (Veronica persica (VERPE)): 90%; Pre-emergence activity against SETVI (Setaria viridis (SETVI) [16]; 320 g/ha): 100%; Pre-emergence activity against POLCO ([2]; 320 g/ha): 80%; Pre-emergence activity against DIGSA [18]: 100%; Pre-emergence activity against ALOMY ([3]; 320 g/ha): 80%; Pre-emergence activity against AVEFA (Avena fatua (AVEFA) [4]; 320 g/ha): 100%; post-emergence activity against BRSNW (Brassica napus (BRSNW)): 0%; Post-emergence activity against LOLRI (Lolium rigidum (LOLRI) [19]): 80%; Post-emergence activity against DIGSA [20]: 90%
